Data on 40 compounds can be found in patent publication US8951997B2, “Substituted isoquinoline derivative” (D. Western Therapeutics Institute, Inc., priority 2009, dated 2015).

SMILES strings stand for the structures. Structures can show the parent of a compound that is named as a salt.

This experiment concerns rabbits (New Zealand White). Nature of the experiment: Ocular hypotensive effect in rabbits. Type of experiment: in vivo, rabbit. Particulars: Oryctolagus cuniculus, topical, 0.04 mL dropped to one eye, vehicle to contralateral eye, test compound solution concentration 10 (W/V), read-out: Maximum ocular hypotensive rate. As for the experimental part: The compound of the present invention was administered to rabbits (New Zealand White, sex: male, 3 to 7 per group) and evaluated for its ocular hypotensive effect.
Each test compound was dissolved in a vehicle (1.04 g of sodium dihydrogen phosphate dihydrate and 0.5 g of sodium chloride dissolved in purified water and then adjusted to pH 7.0 with sodium hydroxide to make the total amount to 100 mL) to prepare a test compound solution with a concentration of 10 (W/V).
The intraocular pressures of the rabbits were measured using Tiolat TonoVet handheld tonometer immediately before administration of test compound. The test compound solution and the vehicle were dropped at a volume of 0.04 mL to one eye and the contralateral eye, respectively, and the intraocular pressures were measured over time in the same way as above. The rate of the intraocular pressure of the eye receiving the test compound solution to that of the eye receiving the vehicle was calculated as an ocular hypotensive rate.
Turning to `O=S(=O)(c1ccc2cnccc2c1)N1CCCCNCC1CF` (stereo in doubt) [Example 27, (R)-6-(2-fluoromethyl-1,4-diazocan-1-ylsulfonyl)isoquinoline dihydrochloride], the inhibition in vivo at 10 % is at least 15%.
Turning to `O=S(=O)(c1ccc2cnccc2c1)N1CCNCC1` [Example 1, 6-(piperazin-1-ylsulfonyl)isoquinoline dihydrochloride], the inhibition in vivo at 10 % is at least 15%.
Next, `N[C@@H]1CCN(S(=O)(=O)c2ccc3cnccc3c2)C1` [Example 2, (R)-6-(3-aminopyrrolidin-1-ylsulfonyl)isoquinoline dihydrochloride]: at least 15%; `O=S(=O)(c1ccc2cnccc2c1)N1CCCNCC1` [Example 3, 6-(1,4-diazepan-1-ylsulfonyl)isoquinoline dihydrochloride]: at least 15%.
The result for `NC1CCN(S(=O)(=O)c2ccc3cnccc3c2)CC1` [Example 4, 6-(4-aminopiperidin-1-ylsulfonyl)isoquinoline dihydrochloride] reads 5 to 15%.
Take `O=S(=O)(c1ccc2cnccc2c1Br)N1CCCNCC1` [Example 5, 5-bromo-6-(1,4-diazepan-1-ylsulfonyl)isoquinoline dihydrochloride]: the inhibition in vivo at 10 % is at least 15%.
The result for `O=S(=O)(c1cc(F)c2cnccc2c1)N1CCCNCC1` [Example 6, 6-(1,4-diazepan-1-ylsulfonyl)-8-fluoroisoquinoline dihydrochloride] reads 5 to 15%; that for `O=S(=O)(c1ccc2cnccc2c1)N1C[C@@H]2C[C@H]1CN2` [Example 7, 6-{(1S,4S)-2,5-diazabicyclo[2.2.1]heptan-2-ylsulfonyl}isoquinoline dihydrochloride], at least 15%.
Next, `C[C@@H]1CNC/C=C\CN1S(=O)(=O)c1ccc2cnccc2c1` [Example 8, (R,Z)-6-(2-methyl-2,3,4,5-tetrahydro-1,4-diazocin-1(8H)-ylsulfonyl)isoquinoline dihydrochloride]: at least 15%; `O=S(=O)(c1ccc2cnccc2c1)N1CCOCC1` [Example 9, 6-(morpholin-1-ylsulfonyl)isoquinoline hydrochloride]: 5 to 15%; `CN[C@H]1CCN(S(=O)(=O)c2ccc3cnccc3c2)C1` [Example 10, (S)-6-{3-(N-methylamino)pyrrolidin-1-ylsulfonyl}isoquinoline dihydrochloride]: 5 to 15%.
Turning to `C[C@H]1CNCCCN1S(=O)(=O)c1ccc2cnccc2c1` [Example 12, (S)-6-(2-methyl-1,4-diazepan-1-ylsulfonyl)isoquinoline dihydrochloride], the inhibition in vivo at 10 % is at least 15%.
Next, `C[C@H]1CNCCN1S(=O)(=O)c1ccc2cnccc2c1` [Example 13, (S)-6-(2-methylpiperazin-1-ylsulfonyl)isoquinoline dihydrochloride]: at least 15%; `CC1CN(S(=O)(=O)c2ccc3cnccc3c2)CCCN1` (stereo not shown) [Example 16, 6-(3-methyl-1,4-diazepan-1-ylsulfonyl)isoquinoline dihydrochloride]: at least 15%; `CC1CCNCCN1S(=O)(=O)c1ccc2cnccc2c1` (stereo not shown) [Example 17, 6-(7-methyl-1,4-diazepan-1-ylsulfonyl)isoquinoline dihydrochloride]: at least 15%.
The result for `CC[C@@H]1CNCCCN1S(=O)(=O)c1ccc2cnccc2c1` [Example 19, (R)-6-(2-ethyl-1,4-diazepan-1-ylsulfonyl)isoquinoline dihydrochloride] reads at least 15%; that for `CC[C@@H]1CNCCCCN1S(=O)(=O)c1ccc2cnccc2c1` [Example 20, (R)-6-(2-ethyl-1,4-diazocan-1-ylsulfonyl)isoquinoline dihydrochloride], at least 15%.
For `O=S(=O)(c1ccc2cnccc2c1)N1CCCCNCC1` [Example 21, 6-(1,4-diazocan-1-ylsulfonyl)isoquinoline dihydrochloride], the inhibition in vivo at 10 % was at least 15%.
On to `CC1(C)CNCCCN1S(=O)(=O)c1ccc2cnccc2c1` [Example 22, 6-(2,2-dimethyl-1,4-diazepan-1-ylsulfonyl)isoquinoline dihydrochloride], for which the inhibition in vivo at 10 % is at least 15%.
For `C[C@@H]1CNCCCCN1S(=O)(=O)c1ccc2cnccc2c1Br` [Example 23, (R)-5-bromo-6-(2-methyl-1,4-diazocan-1-ylsulfonyl)isoquinoline dihydrochloride], the inhibition in vivo at 10 % was at least 15%.
Consider `C[C@H]1CNCCCCN1S(=O)(=O)c1ccc2cnccc2c1` [Example 24, (S)-6-(2-methyl-1,4-diazocan-1-ylsulfonyl)isoquinoline dihydrochloride], for which the inhibition in vivo at 10 % was at least 15%.
For the compound `C[C@@H]1CNCCCN1S(=O)(=O)c1cc2ccncc2cc1F` [Example 25, (R)-6-(2-methyl-1,4-diazepan-1-ylsulfonyl)-7-fluoroisoquinoline dihydrochloride], the inhibition in vivo at 10 % is at least 15%.
The result for `O=S(=O)(c1ccc2cnccc2c1)N1CCCNC[C@H]1CF` [Example 26, (S)-6-(2-fluoromethyl-1,4-diazepan-1-ylsulfonyl)isoquinoline dihydrochloride] reads at least 15%; that for `C[C@H]1CNCCCCCN1S(=O)(=O)c1ccc2cnccc2c1` [Example 28, (S)-6-(2-methyl-1,4-diazonan-1-ylsulfonyl)isoquinoline dihydrochloride], at least 15%.
On to `C[C@@H]1CNCCCN1S(=O)(=O)c1ccc2cnccc2c1Br` [Example 29, (R)-5-bromo-6-(2-methyl-1,4-diazepan-1-ylsulfonyl)isoquinoline dihydrochloride], for which the inhibition in vivo at 10 % is at least 15%.
With `C[C@@H]1CCN(S(=O)(=O)c2ccc3cnccc3c2)CCNC1` [Example 30, (R)-6-(6-methyl-1,4-diazocan-1-ylsulfonyl)isoquinoline dihydrochloride], the inhibition in vivo at 10 % was at least 15%.
The result for `C[C@@H]1CCNCCN(S(=O)(=O)c2ccc3cnccc3c2)C1` [Example 31, (R)-6-(7-methyl-1,4-diazocan-1-ylsulfonyl)isoquinoline dihydrochloride] reads at least 15%.
As for `C[C@@H]1CNCCCCCN1S(=O)(=O)c1ccc2cnccc2c1` [Example 33, (R)-6-(2-methyl-1,4-diazonan-1-ylsulfonyl)isoquinoline dihydrochloride], the inhibition in vivo at 10 % is at least 15%.
Next, `C[C@@H]1CCNC[C@H](C)N1S(=O)(=O)c1ccc2cnccc2c1` [Example 36, (2S,7R)-6-(2,7-dimethyl-1,4-diazepan-1-ylsulfonyl)isoquinoline dihydrochloride]: at least 15%; `C[C@@H]1CCCNCCN1S(=O)(=O)c1ccc2cnccc2c1` [Example 37, (R)-6-(8-methyl-1,4-diazocan-1-ylsulfonyl)isoquinoline dihydrochloride]: at least 15%.
For the compound `C[C@@H]1CCNCCCN1S(=O)(=O)c1ccc2cnccc2c1` [Example 38, (R)-6-(2-methyl-1,5-diazocan-1-ylsulfonyl)isoquinoline dihydrochloride], the inhibition in vivo at 10 % was at least 15%.
Regarding `C[C@@H]1CNCCCCN1S(=O)(=O)c1ccc2cnccc2c1[N+](=O)[O-]` [Example 39, (R)-6-(2-methyl-1,4-diazocan-1-ylsulfonyl)-5-nitroisoquinoline dihydrochloride], the inhibition in vivo at 10 % is at least 15%.
In the case of `C[C@@H]1CNC[C@@H](C)N1S(=O)(=O)c1ccc2cnccc2c1` [Example 40, (2R,6R)-6-(2,6-dimethylpiperazin-1-ylsulfonyl)isoquinoline dihydrochloride], the inhibition in vivo at 10 % was at least 15%.
Next, `C[C@H]1CCNC[C@H](C)N1S(=O)(=O)c1ccc2cnccc2c1` [Example 41, (2S,7S)-6-(2,7-dimethyl-1,4-diazepan-1-ylsulfonyl)isoquinoline dihydrochloride]: at least 15%; `C[C@H]1CCNCCCN1S(=O)(=O)c1ccc2cnccc2c1` [Example 42, (S)-6-(2-methyl-1,5-diazocan-1-ylsulfonyl)isoquinoline dihydrochloride]: at least 15%.
The result for `C[C@@H]1CNCCOCCN1S(=O)(=O)c1ccc2cnccc2c1` [Example 43, (R)-6-(5-methyl-1,4,7-oxadiazonan-4-ylsulfonyl)isoquinoline dihydrochloride] reads at least 15%.
Next, `C[C@@H]1CNCCNCCN1S(=O)(=O)c1ccc2cnccc2c1` [Example 44, (R)-6-(2-methyl-1,4,7-triazonan-1-ylsulfonyl)isoquinoline trihydrochloride]: at least 15%.
Turning to `NCC(=O)N1CCCN(S(=O)(=O)c2ccc3cnccc3c2)CC1` [Example 45, 6-(4-glycyl-1,4-diazepan-1-ylsulfonyl)isoquinoline dihydrochloride], the inhibition in vivo at 10 % lay in the range of 5 to 15%.
The result for `C[C@@H]1CN(C(=O)CN)CCCCN1S(=O)(=O)c1ccc2cnccc2c1` [Example 47, (R)-6-(4-glycyl-2-methyl-1,4-diazocan-1-ylsulfonyl)isoquinoline dihydrochloride] reads 5 to 15%; that for `CNCC(=O)N1CCCCN(S(=O)(=O)c2ccc3cnccc3c2)[C@H](C)C1` [Example 48, (R)-6-(4-sarcosyl-2-methyl-1,4-diazocan-1-ylsulfonyl)isoquinoline dihydrochloride], 5 to 15%.
